In ChEMBL document CHEMBL3885861, “Open TG-GATES”:

Organism: Rattus norvegicus
Test: Open TG-GATES - Regimen: Single
Assay type: toxicity, organism-based, Sprague-Dawley
Parameters: regimen Single, gender Male, age 6 weeks
Settings: in vivo, ip, 100 mg/kg, route intraperitoneal injection, dose level Low; for APTT / Bas / Eos / Fbg / Hb / Ht / Lym / MCH / MCHC / MCV / Mono / Neu / PT / Plat / RBC / Ret / WBC: tissue Blood; for KIDNEY_L / KIDNEY_R / KIDNEY_TOTAL: tissue Kidney; for LIVER: tissue Liver; for A/G / ALP / ALT / AST / BUN / CRE / Ca / Cl / DBIL / GLC / IP / K / LDH / Na / PL / RALB / TBIL / TC / TG / TP / gamma-GTP: tissue Plasma

For N[C@H]1C(O)O[C@H](CO)[C@@H](O)[C@@H]1O (some centres not stated) [GLUCOSAMINE], the TERMINAL_BW (3 h) was 188.6 g, the APTT (3 h) was 16.4 s and the Bas (3 h) was 0.4%. For the same compound, the Eos (3 h) was 1%, the Fbg (3 h) was 267.2 mg/dL and the Hb (3 h) was 13.3 g/dL. For the same compound, the Ht (3 h) was 41.3%, the Lym (3 h) was 75% and the MCH (3 h) was 21.3 pg. The MCHC (3 h) was 32.1%, the MCV (3 h) was 66.4 fL and the Mono (3 h) was 3.2%. The Neu (3 h) was 19.6%, the PT (3 h) was 15.7 s and the Plat (3 h) was 114.1 x10_4/uL. The RBC (3 h) was 623.2 x10_4/ul, the Ret (3 h) was 9.9% and the WBC (3 h) was 83.2 x10_2/uL. It also gave a KIDNEY_L (3 h) of 0.8 g, a KIDNEY_R (3 h) of 0.8 g and a KIDNEY_TOTAL (3 h) of 1.6 g. It also gave an LIVER (3 h) of 8.3 g, an A/G (3 h) of 0.9 and an ALP (3 h) of 1288 IU/L. For the same compound, the ALT (3 h) was 42.2 IU/L, the AST (3 h) was 84.6 IU/L and the BUN (3 h) was 10.4 mg/dL. The CRE (3 h) was 0.2 mg/dL, the Ca (3 h) was 10.6 mg/dL and the Cl (3 h) was 108.4 meq/L. The DBIL (3 h) was 0.01 mg/dL, the GLC (3 h) was 171.6 mg/dL and the IP (3 h) was 9.2 mg/dL. For the same compound, the K (3 h) was 4 meq/L, the LDH (3 h) was 70 IU/L and the Na (3 h) was 143.4 meq/L. For the same compound, the PL (3 h) was 147.8 mg/dL, the RALB (3 h) was 2.5 g/dL and the TBIL (3 h) was 0.054 mg/dL. For the same compound, the TC (3 h) was 80.8 mg/dL, the TG (3 h) was 36.8 mg/dL and the TP (3 h) was 5.2 g/dL. The gamma-GTP (3 h) was 1 IU/L, the TERMINAL_BW (6 h) was 186.1 g and the APTT (6 h) was 17.1 s. For the same compound, the Bas (6 h) was 0%, the Eos (6 h) was 0.8% and the Fbg (6 h) was 259.4 mg/dL. For the same compound, the Hb (6 h) was 12.8 g/dL, the Ht (6 h) was 39.3% and the Lym (6 h) was 67%. For the same compound, the MCH (6 h) was 21.5 pg, the MCHC (6 h) was 32.7% and the MCV (6 h) was 65.9 fL. The Mono (6 h) was 3.6%, the Neu (6 h) was 27.6% and the PT (6 h) was 16.9 s. It also gave a Plat (6 h) of 114.6 x10_4/uL, an RBC (6 h) of 596 x10_4/ul and a Ret (6 h) of 9.9%. The WBC (6 h) was 82.3 x10_2/uL, the KIDNEY_L (6 h) was 0.8 g and the KIDNEY_R (6 h) was 0.8 g. For the same compound, the KIDNEY_TOTAL (6 h) was 1.7 g, the LIVER (6 h) was 7.7 g and the A/G (6 h) was 0.9. The ALP (6 h) was 1431.6 IU/L, the ALT (6 h) was 49.6 IU/L and the AST (6 h) was 94.2 IU/L. The BUN (6 h) was 8.8 mg/dL, the CRE (6 h) was 0.2 mg/dL and the Ca (6 h) was 10.1 mg/dL. The Cl (6 h) was 107.8 meq/L, the DBIL (6 h) was 0.006 mg/dL and the GLC (6 h) was 158 mg/dL. The IP (6 h) was 9.5 mg/dL, the K (6 h) was 3.9 meq/L and the LDH (6 h) was 58.6 IU/L. The Na (6 h) was 143.2 meq/L, the PL (6 h) was 144.2 mg/dL and the RALB (6 h) was 2.4 g/dL. It also gave a TBIL (6 h) of 0.054 mg/dL, a TC (6 h) of 80.2 mg/dL and a TG (6 h) of 40.2 mg/dL. The TP (6 h) was 5.1 g/dL, the gamma-GTP (6 h) was 1 IU/L and the TERMINAL_BW (9 h) was 185.8 g. For the same compound, the APTT (9 h) was 18.8 s, the Bas (9 h) was 0% and the Eos (9 h) was 0.8%. The Fbg (9 h) was 289.4 mg/dL, the Hb (9 h) was 12.9 g/dL and the Ht (9 h) was 39.8%. For the same compound, the Lym (9 h) was 68.4%, the MCH (9 h) was 21 pg and the MCHC (9 h) was 32.3%. For the same compound, the MCV (9 h) was 64.8 fL, the Mono (9 h) was 1.8% and the Neu (9 h) was 28.4%. It also gave a PT (9 h) of 16.1 s, a Plat (9 h) of 104 x10_4/uL and an RBC (9 h) of 614.4 x10_4/ul. The Ret (9 h) was 9.1%, the WBC (9 h) was 60.7 x10_2/uL and the KIDNEY_L (9 h) was 0.8 g. It also gave a KIDNEY_R (9 h) of 0.8 g, a KIDNEY_TOTAL (9 h) of 1.7 g and an LIVER (9 h) of 7.4 g. The A/G (9 h) was 0.9, the ALP (9 h) was 1454.4 IU/L and the ALT (9 h) was 39 IU/L. For the same compound, the AST (9 h) was 83.4 IU/L, the BUN (9 h) was 8 mg/dL and the CRE (9 h) was 0.2 mg/dL. The Ca (9 h) was 10.4 mg/dL, the Cl (9 h) was 107 meq/L and the DBIL (9 h) was 0.008 mg/dL. The GLC (9 h) was 180 mg/dL, the IP (9 h) was 10.4 mg/dL and the K (9 h) was 3.6 meq/L. For the same compound, the LDH (9 h) was 54.8 IU/L, the Na (9 h) was 144 meq/L and the PL (9 h) was 142.2 mg/dL. It also gave an RALB (9 h) of 2.5 g/dL, a TBIL (9 h) of 0.056 mg/dL and a TC (9 h) of 78.8 mg/dL. It also gave a TG (9 h) of 35.6 mg/dL, a TP (9 h) of 5.3 g/dL and a gamma-GTP (9 h) of 1 IU/L. The TERMINAL_BW (24 h) was 202.9 g, the APTT (24 h) was 18.1 s and the Bas (24 h) was 0.2%. For the same compound, the Eos (24 h) was 1.6%, the Fbg (24 h) was 253.2 mg/dL and the Hb (24 h) was 12.8 g/dL. It also gave a Ht (24 h) of 39.2%, a Lym (24 h) of 69.2% and an MCH (24 h) of 20.8 pg. It also gave an MCHC (24 h) of 32.7%, an MCV (24 h) of 63.6 fL and a Mono (24 h) of 3%. It also gave a Neu (24 h) of 25.2%, a PT (24 h) of 16.2 s and a Plat (24 h) of 105.9 x10_4/uL. It also gave an RBC (24 h) of 616.8 x10_4/ul, a Ret (24 h) of 8.6% and a WBC (24 h) of 93.3 x10_2/uL. The KIDNEY_L (24 h) was 0.9 g, the KIDNEY_R (24 h) was 0.9 g and the KIDNEY_TOTAL (24 h) was 1.7 g. For the same compound, the LIVER (24 h) was 9 g, the A/G (24 h) was 0.9 and the ALP (24 h) was 1735.2 IU/L. For the same compound, the ALT (24 h) was 51.8 IU/L, the AST (24 h) was 81.4 IU/L and the BUN (24 h) was 14.2 mg/dL. For the same compound, the CRE (24 h) was 0.2 mg/dL, the Ca (24 h) was 10.6 mg/dL and the Cl (24 h) was 107.4 meq/L. It also gave a DBIL (24 h) of 0.014 mg/dL, a GLC (24 h) of 181.6 mg/dL and an IP (24 h) of 8.5 mg/dL. It also gave a K (24 h) of 4.2 meq/L, an LDH (24 h) of 134.8 IU/L and a Na (24 h) of 143.8 meq/L. For the same compound, the PL (24 h) was 160.4 mg/dL, the RALB (24 h) was 2.6 g/dL and the TBIL (24 h) was 0.036 mg/dL. The TC (24 h) was 83.4 mg/dL, the TG (24 h) was 76.6 mg/dL and the TP (24 h) was 5.6 g/dL. For the same compound, the gamma-GTP (24 h) was 1 IU/L.
